Usually IC50 stands for the concentration needed to halve the response being measured. Read a high IC50 as a need for much substance. What is called T/C is the ratio of treated to control.

This note sets out measurements from ChEMBL document CHEMBL5154650, “Identification and optimization of biphenyl derivatives as novel tubulin inhibitors targeting colchicine-binding site overcoming multidrug resistance” (Eur J Med Chem, 2022).

Series [1] is described as follows: Resistant index, ratio IC50 for KB/VCR cells over IC50 for KB cells. The format is functional.
Another series deals with THP-1. The experiment in a line: Antiproliferative activity against human THP-1 cells measured after 72 hrs by SRB assay. The note with it: THP-1, 72 h. Format: functional, cell-based. For orientation: Sulforhodamine B stains cellular protein and so reports cell mass.
Series [2] can be described thus: Antiproliferative activity against human MRC9 cells measured after 72 hrs by SRB assay. The note with it: MRC9, 72 h. The format is functional, cell-based.
Series [3] concerns 4T1. Briefly: Antitumor activity against mouse 4T1 cells xenografted in female BALB/c mouse assessed as T/C at 5 mg/kg, ip administered every other day for 14 days. The format is functional. The note with it: time 14 day.
Series [4] in a line: Metabolic stability in human liver microsomes assessed as intrinsic clearance at 1 uM in presence of NADPH measured by LC-MS/MS analysis. Format: ADME, Microsome.
Series [5] can be described thus: Antiproliferative activity against human KB/VCR cells measured after 72 hrs by SRB assay. Format: functional, cell-based.
The test system of the next series is RAW264.7. Briefly: Antiproliferative activity against mouse RAW264.7 cells measured after 72 hrs by SRB assay. To be noted: RAW264.7, 72 h. Format: functional, cell-based.
The next series concerns HT-1080. Briefly: Antiproliferative activity against human HT-1080 cells measured after 72 hrs by SRB assay. The format is functional, cell-based. The note with it: HT-1080, 72 h.
For the next series, the system named is HeLa. The experiment in a line: Antiproliferative activity against human HeLa cells measured after 72 hrs by SRB assay. Format: functional, cell-based.
The nature of series [6]: Resistant index, ratio IC50 for K562/Adr cells over IC50 for K562 cells. The format is functional.
A short description of series [7]: Toxicity in female BALB/c mouse xenografted with mouse 4T1 cells assessed as body weight loss at 5 mg/kg, ip administered every other day for 14 days and measured after 7 days. To be noted: in vivo, 336 h, time 14 day. The format is organism-based.
In series [8] the test system is 4T1. The experiment in a line: Antiproliferative activity against mouse 4T1 cells measured after 72 hrs by SRB assay. Format: functional, cell-based. The note with it: 4T1, 72 h.
The subject of a further series is K562/Adr. Briefly: Antiproliferative activity against human K562/Adr cells measured after 72 hrs by SRB assay. The format is functional, cell-based.
Another series deals with K562. The experiment in a line: Antiproliferative activity against human K562 cells measured after 72 hrs by SRB assay. The format is functional, cell-based. To be noted: K562, 72 h.
A short description of series [9]: Resistant index, ratio IC50 for KB-V1 cells over IC50 for KB cells. The format is functional.
In a further series the test system is KB-V1. The experiment in a line: Antiproliferative activity against human KB-V1 cells measured after 72 hrs by SRB assay. The format is functional, cell-based. The note with it: KB-V1, 72 h.
For series [10], the system named is A549. Briefly: Induction of cell cycle arrest in human A549 cells assessed as accumulation at G2/M phase at 20 nM measured propidium iodide based flow cytometry analysis. The format is functional.
The next series relates to KB. The experiment in a line: Antiproliferative activity against human KB cells measured after 72 hrs by SRB assay. The format is functional, cell-based.
A further series relates to HL-60. The experiment in a line: Antiproliferative activity against human HL-60 cells measured after 72 hrs by SRB assay. Format: functional, cell-based. To be noted: HL-60, 72 h.
Series [11] deals with A549. Briefly: Antiproliferative activity against human A549 cells measured after 72 hrs by SRB assay. The format is functional, cell-based. To be noted: Homo sapiens, A549, 72 h.

Consider `COc1cc(C#N)cc(-c2ccc(C(=O)c3ccccc3)c(N)c2)c1.Cl`, for which the “Ratio IC50” value in series [1] is given as 1; in series [6] it was 0.9; in series [9], 1. The IC50 in the series on THP-1 worked out at 7.4 nM; in [2], 166 nM; in [5], 6.1 nM; in the series on RAW264.7, 7.6 nM; with HT-1080, 6.3 nM; in the series with HeLa, 4.2 nM. Also, the IC50 with 4T1 [8] was determined as 7.7 nM; in the series with K562/Adr it was 7.1 nM; in the series on K562, 7.8 nM; with KB-V1, 6.3 nM; with KB, 6.3 nM; with HL-60, 6.8 nM. Besides, the IC50 with A549 [11] came out at 5 nM. For the same compound, the T/C in the series on 4T1 [3] was found to be 29.9%. Besides, the CLH in series [4] stood at 0.581 mL/min/g. Besides, the Activity entry in [7] is on record as “Non-Toxic”; with A549 [10], 90%.
